Results reported in patent US9687479B2, “Multisubstituted aromatic compounds as serine protease inhibitors” (VERSEON CORPORATION, priority 2013, dated 2017).

Experiments:
[1] = target: Human KLKB1 (Homo sapiens (Human), UniProt P03952); assay: KLKB1 kallikrein activity inhibition assay (chromogenic substrate S-2302); type: biochemical; conditions: Table B
In short: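 Enzyme at a final 3 nM was assayed in 0.05 M Tris pH 7.4, 0.01 M NaCl and 0.2% PEG-8000 at room temperature, with compounds as ten-point threefold dilutions.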

[2] = target: Human thrombin (Homo sapiens (Human), UniProt P00734); assay: Thrombin protease activity inhibition assay (chromogenic substrate S-2238); type: biochemical; conditions: 3 nM thrombin, 125 μM S-2238, 10 min pre-incubation, RT
In short: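 Ten-point, three-fold serial dilutions of compound tested against 3 nM enzyme at RT in Tris buffer (0.05 M, pH 7.4) with 0.015 M NaCl and 0.01% PEG-8000.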

Human KLKB1, sequence (P03952 391-638 limits assumed): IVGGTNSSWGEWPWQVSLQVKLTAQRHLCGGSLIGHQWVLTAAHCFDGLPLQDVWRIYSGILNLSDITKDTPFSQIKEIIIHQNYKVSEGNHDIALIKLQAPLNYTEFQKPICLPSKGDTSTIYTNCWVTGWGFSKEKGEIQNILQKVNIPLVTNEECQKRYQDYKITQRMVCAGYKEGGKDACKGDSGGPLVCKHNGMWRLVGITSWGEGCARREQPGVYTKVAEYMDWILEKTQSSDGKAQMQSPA
Human KLKB1, sequence (P03952 20-390 partner limits assumed): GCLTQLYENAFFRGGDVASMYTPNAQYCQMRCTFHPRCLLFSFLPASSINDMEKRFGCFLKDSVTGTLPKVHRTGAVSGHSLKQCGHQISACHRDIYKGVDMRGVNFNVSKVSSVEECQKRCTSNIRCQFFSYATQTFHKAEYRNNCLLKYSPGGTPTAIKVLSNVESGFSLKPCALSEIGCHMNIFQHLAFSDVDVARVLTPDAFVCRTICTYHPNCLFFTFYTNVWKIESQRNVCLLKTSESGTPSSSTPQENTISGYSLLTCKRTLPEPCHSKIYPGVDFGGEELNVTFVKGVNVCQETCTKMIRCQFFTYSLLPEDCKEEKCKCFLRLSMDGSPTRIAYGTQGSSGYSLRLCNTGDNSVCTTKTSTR

| SMILES | IC50 [1] [µM] | IC50 [2] [µM] |
| --- | --- | --- |
| CC1(C(=O)n2nc(-c3cccn(Cc4cccs4)c3=O)cc2NCc2ccc(Cl)s2)CCOCC1 [Cmpd 157, 3-(5-[(5-chlorothiophen-2-yl)methyl]amino-1-[(4-methyloxan-4-yl)carbonyl]-1H-pyrazol-3-yl)-1-(thiophen-2-ylmethyl)-1,2-dihydropyridin-2-one] | > 100 | < 0.1 |
| O=c1c(-c2cc(NCc3ccc(Cl)s3)[nH]n2)cccn1Cc1ccncc1 [Cmpd 229, 3-(5-[(5-chlorothiophen-2-yl)methyl]amino-1H-pyrazol-3-yl)-1-(pyridin-4-ylmethyl)-1,2-dihydropyridin-2-one] | > 100 | 1 to 10 |
| COCC(C)(C)C(=O)n1nc(-c2cccn(Cc3ccncc3)c2=O)cc1NCc1ccc(Cl)s1 [Cmpd 103, 3-(5-[(5-chlorothiophen-2-yl)methyl]amino-1-(3-methoxy-2,2-dimethylpropanoyl)-1H-pyrazol-3-yl)-1-(pyridin-4-ylmethyl)-1,2-dihydropyridin-2-one] | 10 to 100 | < 0.1 |
| COc1ccc(C(=O)n2nc(-c3cccn(Cc4ccoc4)c3=O)cc2NCc2ccc(Cl)s2)c(OC)c1 [Cmpd 123, 3-(5-[(5-chlorothiophen-2-yl)methyl]amino-1-[(2,4-dimethoxyphenyl)carbonyl]-1H-pyrazol-3-yl)-1-(furan-3-ylmethyl)-1,2-dihydropyridin-2-one] | 10 to 100 | < 0.1 |
| O=c1c(-c2cc(NCc3ccc(Cl)s3)[nH]n2)cccn1Cc1ccccn1 [Cmpd 227, 3-(5-[(5-chlorothiophen-2-yl)methyl]amino-1H-pyrazol-3-yl)-1-(pyridin-2-ylmethyl)-1,2-dihydropyridin-2-one] | > 100 | 1 to 10 |
| COCCn1cccc(-c2cc(NCc3ccc(Cl)s3)n(C(=O)c3cccs3)n2)c1=O [Cmpd 182, 3-(5-[(5-chlorothiophen-2-yl)methyl]amino-1-[(thiophen-2-yl)carbonyl]-1H-pyrazol-3-yl)-1-(2-methoxyethyl)-1,2-dihydropyridin-2-one] | 1 to 10 | < 0.1 |
| COc1ccc(C(=O)n2nc(-c3cccn(Cc4ccccc4)c3=O)cc2NCc2ccc(Cl)s2)c(OC)c1 [Cmpd 46, 1-benzyl-3-(5-[(5-chlorothiophen-2-yl)methyl]amino-1-[(2,4-dimethoxyphenyl)carbonyl]-1H-pyrazol-3-yl)-1,2-dihydropyridin-2-one] | 10 to 100 | < 0.1 |
| O=C(c1ccco1)n1nc(-c2cccn(Cc3ccccc3)c2=O)cc1NCc1ccc(Cl)s1 [Cmpd 49, 1-benzyl-3-(5-[(5-chlorothiophen-2-yl)methyl]amino-1-[(furan-2-yl)carbonyl]-1H-pyrazol-3-yl)-1,2-dihydropyridin-2-one] | 0.1 to 1 | < 0.1 |
| COCCn1cccc(-c2cc(NCc3ccc(Cl)s3)n(C(=O)C(C)(C)CO)n2)c1=O [Cmpd 92, 3-(5-[(5-chlorothiophen-2-yl)methyl]amino-1-(3-hydroxy-2,2-dimethylpropanoyl)-1H-pyrazol-3-yl)-1-(2-methoxyethyl)-1,2-dihydropyridin-2-one] | 10 to 100 | < 0.1 |
| COCCn1cccc(-c2cc(NCc3ccc(Cl)s3)n(C(=O)c3cccc4c3OCCO4)n2)c1=O [Cmpd 109, 3-(5-[(5-chlorothiophen-2-yl)methyl]amino-1-[(2,3-dihydro-1,4-benzodioxin-5-yl)carbonyl]-1H-pyrazol-3-yl)-1-(2-methoxyethyl)-1,2-dihydropyridin-2-one] | 1 to 10 | < 0.1 |
| O=C(c1cccs1)n1nc(-c2cccn(Cc3ccoc3)c2=O)cc1NCc1ccc(Cl)s1 [Cmpd 184, 3-(5-[(5-chlorothiophen-2-yl)methyl]amino-1-[(thiophen-2-yl)carbonyl]-1H-pyrazol-3-yl)-1-(furan-3-ylmethyl)-1,2-dihydropyridin-2-one] | 10 to 100 | < 0.1 |
| O=c1c(-c2cc(NCc3ccc(Cl)s3)n[nH]2)cccn1CCc1ccccn1 [Cmpd 235, 3-(5-[(5-chlorothiophen-2-yl)methyl]amino-1H-pyrazol-3-yl)-1-[2-(pyridin-2-yl)ethyl]-1,2-dihydropyridin-2-one] | 10 to 100 | 10 to 100 |
